# Laboratory results taken from ChEMBL document CHEMBL1146739, “Alpha,alpha-trehalose derivatives bearing guanidino groups as inhibitors to HIV-1 Tat-TAR RNA interaction in human cells” (Bioorg Med Chem Lett, 2004).
# Tested on: Nucleic Acid
# Assay: Inhibitory activity against TatTAR RNA interaction in human cells by Tat-dependent HIV-1 long terminal repeats (LTR)-driven chloramphenicol acetyltransferase assay at 3 uM concentration; decreased from 69.5 to 44.2
# Assay type: cell-based
# Parameters: unit not given here
row,SMILES,Activity
1,NC(N)=NCCCC(N)C(=O)NCC1OC(OC2OC(CNC(=O)C(N)CCCN=C(N)N)C(O)C(O)C2O)C(O)C(O)C1O (centres undefined),44.2
2,N=C(N)NCCCC(=O)NCC1OC(OC2OC(CNC(=O)CCCNC(=N)N)C(O)C(O)C2O)C(O)C(O)C1O (centres undefined),44.2
3,N=C(N)NCC1OC(OC2OC(CNC(=N)N)C(O)C(O)C2O)C(O)C(O)C1O (centres undefined),44.2
4,N=C(N)NCC(=O)NCC1OC(OC2OC(CNC(=O)CNC(=N)N)C(O)C(O)C2O)C(O)C(O)C1O (centres undefined),44.2
